Measurements taken from ChEMBL document CHEMBL1151512, “Design and synthesis of new potential photoaffinity labels for mammalian squalene epoxidase” (Bioorg Med Chem Lett, 1997).

Test system: HepG2
Experiment: In vitro cholesterol biosynthesis inhibition in human HepG2 by measuring the extend of cholesterol radiolabeling after incubation with [14C]mevalonate.
Type: functional, cell-based

Row | Structure (SMILES) | IC50
1 | CCN(C/C=C/C#CC(C)(C)C)Cc1cccc(OC[Si](C)(C)c2ccc(C#N)cc2)c1 | 60 nM
2 | CCN(C/C=C/C#CC(C)(C)C)Cc1cccc(OC[Si](C)(C)c2ccc(N=[N+]=[N-])cc2)c1 | 1200 nM
3 | CCN(CC#Cc1ccc(N=[N+]=[N-])cc1)Cc1cccc(OCc2cc(-c3ccsc3)cs2)c1 | 2100 nM
4 | CCN(CC#Cc1ccccc1)Cc1cccc(OCc2cc(-c3ccsc3)cs2)c1 | 70 nM

More lines, now with the values ahead:

Row | IC50 | Structure (SMILES)
5 | > 100000 nM | CCN(CC#Cc1ccccc1N=[N+]=[N-])Cc1cccc(OCc2cc(-c3ccsc3)cs2)c1
6 | 540 nM | CCN(CC#Cc1cccc(N=[N+]=[N-])c1)Cc1cccc(OCc2cc(-c3ccsc3)cs2)c1
